Assay results: patent EP1089763B1, “AGENTS FOR SPECIFICALLY INHIBITING OSTEOCLASTIC BONE RESORPTION” (Dietsch, Peter, priority 1998, dated 1999)

Experiments:
[1] = molecular target: Isoenzym Carboanhydrase II (Homo sapiens, UniProt P00918); assay: Inhibition constant for carbonic anhydrase II; format: biochemical; conditions: Isoenzym Carboanhydrase II expressed in osteoclasts; read-out: Inhibitorkonstante KI
[2] = test system: Knochenresorption; assay: Serum calcium after injection of parathormone in rats; format: in vivo, Ratten; conditions: three days after a single dose of 10 mg/kg, Abb. 5
Description: Die Hemmung der Knochenresorption in Ratten, die mit 1 behandelt wurden, kann an der Änderung der Calciumkonzentration im Serum nach Injektion von Parathormon demonstriert werden (Abb. 5).

[3] = test system: Osteoklasten; assay: Bone resorption by osteoclasts settled on dentine slices (cell culture); format: cell-based
[4] = test system: Erythrozyten; format: cell-based; conditions: not told
[5] = test system: Knochenresooorption; assay: Ovariectomised rats, osteoporosis model; format: in vivo, Ratten; conditions: several months
[6] = test system: Knochenresorption; assay: Strontium excretion and tibia mineral content in strontium-loaded growing rats; format: in vivo, Ratten
Method: Wachsenden Ratten - 6 Wochen alt - wurden sechsmal in Abständen von drei Tagen jeweils 2 mg SrCl2 in physiologischer Kochsalzlösung subkutan injiziert. Die Tiere bauen das Strontium analog dem Calcium in den Knochen ein. Entsprechend der Rate des Knochenumbaus wird das Strontium über Harn und Fäces während eines längeren Zeitraums wieder ausgeschieden. Nach einer 14 tägigen Latenzzeit in der sie eine calciumarme Diät erhielten, wurden ihnen verschiedene Konzentrationen von 1 i.p. apliziert und die Ausscheidung des Strontiums atomabsorptionsspektroskopisch gemessen. Die Abb.
Nach Abschluß des Versuches wurden die Tibiae präpariert und deren Gehalt an Calcium, Strontium und Phosphat bestimmt.

[7] = test system: Nierenzellen; assay: Uptake into kidney cells, DNSA fluorescence displacement (Abb. 2); conditions: Nierenzellen with Carboanhydrase II
Description: Das Maximum der Anregung der Fluoreszenz liegt bei einer Wellenlänge von 320 nm, das Maximum der Emission bei 470 nm. Diese Fluoreszenz läßt sich gut von der des ungebundenen DNSA unterscheiden, da diese grün und sehr viel schwächer ist. Sie hat ihr Emissionsmaximum bei 580 nm. Die Carboanhydrase bindet DNSA im stöchiometrischen Verhältnis 1:1.

[8] = test system: Osteoklasten; conditions: not told
[9] = molecular target: Carboanhydrase II (Homo sapiens, UniProt P00918); conditions: fluorescent DNSA-Carboanhydrase II complex, 1:1; read-out: Dissoziationskonstante KD; cited from earlier work

| membrane permeability [8] | Compound | Ki [1] [nM] | knochenauflösende Wirkung von Parathormon (Calciumkonzentration im Serum) [2] | resorption ([3]; in the presence of osteoclast-activating hormones) | resorption ([3]; osteoclasts on Dentinplättchen) | permeability of the cell membrane [4] | Hemmwirkung auf die Knochenresooorption [5] | Nebenwirkungen [5] | Strontiumausscheidung ([6]; rats, various concentrations i.p., after SrCl2 loading and low-calcium diet, Abb. 3) | Gehalt an Calcium, Strontium und Phosphat (Tibiae) ([6]; versus control group, at the end of the experiment, Abb. 4) | uptake into cells [7] | Kd [9] [nM] |
| --- | --- | --- | --- | --- | --- | --- | --- | --- | --- | --- | --- | --- |
|  | NS(=O)(=O)c1ccc(CNC(=S)Nc2ccc(OC3OC(CO)C(O)C(O)C3O)cc2)cc1 [compound 1, N-α-D-Mannopyranosylphenyl-N'-p-amidosulfonylbenzylthioharnstoff] | 800 | vollständig blockiert | keine Resorption mehr | hören sie auf zu resorbieren | teilweise für 1 durchlässig | Hemmwirkung | keine Nebenwirkungen | Erniedrigung der Strontiumausscheidung | deutlich höhere Konzentration | nicht aufgenommen |  |
|  | CCOc1ccc2nc(S(N)(=O)=O)sc2c1 [Ethoxzolamid, 6-Ethoxybenzothiaziol-2-sulfonamid, reference compound] |  |  |  |  |  |  |  |  |  | aufgenommen |  |
| kann Zellmembranen passieren | CN(C)c1cccc2c(S(N)(=O)=O)cccc12 [DNSA] |  |  |  |  |  |  |  |  |  |  | 240 |
